Measured values published in the supplement of paper PMC10307832.

What was measured:
Test in all cases: relative viability (nuclei count vs DMSO), 5 days (fraction); higher = more cells survive
Alisertib = compound: COc1cc(Nc2ncc3c(n2)-c2ccc(Cl)cc2C(c2c(F)cccc2OC)=NC3)ccc1C(=O)O [Alisertib]
Summary of the method: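 MetaXpress counted nuclei in 4× images of lung cancer cell lines that had been fixed, permeabilised and Hoechst-stained in one step. Before that, cells in 1536-well plates were kept overnight at 37 °C, pinned with five √10-spaced library-drug doses on vehicle-anchored plates, and cultured 5 days without medium change. Viability takes treated-well nuclei over vehicle-well nuclei and uses the median across plates. Plates were accepted only at control CV below 25% and at least one doubling.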

Alisertib + Foretinib = compound: COc1cc(Nc2ncc3c(n2)-c2ccc(Cl)cc2C(c2c(F)cccc2OC)=NC3)ccc1C(=O)O [Alisertib] + COc1cc2c(Oc3ccc(NC(=O)C4(C(=O)Nc5ccc(F)cc5)CC4)cc3F)ccnc2cc1OCCCN1CCOCC1 [Foretinib] (partner 0.25 µM)
Summary of the method: (§1)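 Relative viability was taken as the ratio of nuclei in treated wells to nuclei in vehicle wells. Lung cancer cell lines in 1536-well plates received compounds by pin tool one day after seeding, either one drug alone or a fixed anchor-drug dose plus five library-drug doses (not always all listed) in √10 steps. Nuclei were counted on 4× images after 5 days of treatment, and values are medians of duplicate plates.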

Alisertib + Palbociclib = compound: COc1cc(Nc2ncc3c(n2)-c2ccc(Cl)cc2C(c2c(F)cccc2OC)=NC3)ccc1C(=O)O [Alisertib] + CC(=O)c1c(C)c2cnc(Nc3ccc(N4CCNCC4)cn3)nc2n(C2CCCC2)c1=O [Palbociclib] (partner 0.5 µM)
Summary of the method: as §1

Alisertib + OSI-027 = compound: COc1cc(Nc2ncc3c(n2)-c2ccc(Cl)cc2C(c2c(F)cccc2OC)=NC3)ccc1C(=O)O [Alisertib] + COc1cccc2cc(-c3nc([C@H]4CC[C@H](C(=O)O)CC4)n4ncnc(N)c34)[nH]c12 [OSI-027] (partner 0.5 µM)
Summary of the method: as §1

Cell Line | relative viability (Alisertib; 0.005 µM) | relative viability (Alisertib; 0.01581 µM) | relative viability (Alisertib; 0.05 µM) | relative viability (Alisertib; 0.1581 µM) | relative viability (Alisertib; 0.5 µM) | relative viability (Alisertib + Foretinib; first compound 0.005 µM) | relative viability (Alisertib + Foretinib; first compound 0.01581 µM) | relative viability (Alisertib + Foretinib; first compound 0.05 µM) | relative viability (Alisertib + Foretinib; first compound 0.1581 µM) | relative viability (Alisertib + Foretinib; first compound 0.5 µM) | relative viability (Alisertib + Palbociclib; first compound 0.005 µM) | relative viability (Alisertib + Palbociclib; first compound 0.01581 µM) | relative viability (Alisertib + Palbociclib; first compound 0.05 µM) | relative viability (Alisertib + Palbociclib; first compound 0.1581 µM) | relative viability (Alisertib + Palbociclib; first compound 0.5 µM) | relative viability (Alisertib + OSI-027; first compound 0.005 µM) | relative viability (Alisertib + OSI-027; first compound 0.01581 µM) | relative viability (Alisertib + OSI-027; first compound 0.05 µM) | relative viability (Alisertib + OSI-027; first compound 0.1581 µM) | relative viability (Alisertib + OSI-027; first compound 0.5 µM)
PC-14 | 0.827 | 0.846 | 0.584 | 0.156 | 0.0817 | 0.849 | 0.77 | 0.837 | 0.473 | 0.135 | 0.526 | 0.45 | 0.332 | 0.082 | 0.0483 | 0.659 | 0.8 | 0.393 | 0.0786 | 0.049
RERF-LC-KJ | 0.929 | 0.792 | 0.597 | 0.254 | 0.247 | 0.861 | 0.772 | 0.484 | 0.356 | 0.21 | 1.07 | 0.834 | 0.601 | 0.275 | 0.246 | 0.539 | 0.468 | 0.354 | 0.181 | 0.191
SK-LU-1 | 0.856 | 0.802 | 0.447 | 0.333 | 0.232 | 0.818 | 0.66 | 0.324 | 0.227 | 0.182 | 0.395 | 0.364 | 0.22 | 0.242 | 0.236 | 0.369 | 0.233 | 0.182 | 0.18 | 0.163
SK-MES-1 | 0.913 | 0.947 | 0.561 | 0.326 | 0.16 | 0.779 | 0.928 | 0.74 | 0.233 | 0.189 | 0.316 | 0.346 | 0.29 | 0.226 | 0.161 | 0.563 | 0.572 | 0.276 | 0.21 | 0.117
SW 1573 | 0.919 | 0.644 | 0.372 | 0.213 | 0.147 | 0.911 | 0.772 | 0.667 | 0.245 | 0.172 | 0.304 | 0.27 | 0.152 | 0.134 | 0.117 | 0.556 | 0.5 | 0.284 | 0.148 | 0.102
UMC-11 | 0.437 | 0.3 | 0.211 | 0.176 | 0.186 | 0.648 | 0.263 | 0.189 | 0.195 | 0.168 | 0.331 | 0.289 | 0.248 | 0.223 | 0.275 | 0.328 | 0.219 | 0.165 | 0.175 | 0.189
